The values that follow come from PMC5048659 (Arthritis Research & Therapy, 2016).

Each structure is given as a SMILES string. “Also recorded” adds a separate entry of the source.

One data set deals with T1, GLUT9 (SLC2A9v2/GLUT9ΔN) (Homo sapiens, UniProt Q9NRM0).
T1 construct: expressed in transfected cells
T1 sequence (Q9NRM0 1-511 isoform Q9NRM0-2): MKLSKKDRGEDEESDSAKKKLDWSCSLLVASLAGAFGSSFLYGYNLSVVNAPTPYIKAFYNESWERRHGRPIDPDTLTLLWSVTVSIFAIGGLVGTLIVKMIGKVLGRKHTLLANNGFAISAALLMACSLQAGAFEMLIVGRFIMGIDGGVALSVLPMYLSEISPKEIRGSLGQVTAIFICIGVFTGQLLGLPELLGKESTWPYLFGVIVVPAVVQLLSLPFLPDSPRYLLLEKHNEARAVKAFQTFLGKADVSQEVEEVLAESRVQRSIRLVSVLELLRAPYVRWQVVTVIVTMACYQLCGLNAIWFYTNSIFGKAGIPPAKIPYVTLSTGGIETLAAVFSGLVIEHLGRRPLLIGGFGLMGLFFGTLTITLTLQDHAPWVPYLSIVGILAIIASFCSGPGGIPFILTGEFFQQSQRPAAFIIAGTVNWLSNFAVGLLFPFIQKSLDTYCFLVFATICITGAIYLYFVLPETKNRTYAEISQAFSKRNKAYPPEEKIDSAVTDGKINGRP
Kind of data set: GLUT9 urate transport in cRNA-injected oocytes. In kind it is cell-based. As to the method:
For GLUT9, SLC2A9v2/GLUT9ΔN in pCMV6/neo was linearized with XmaI and NotI and cRNA transcribed using the mMessage mMachine T7 kit (Ambion). Oocytes were injected with either water or 25 ng cRNA and incubated for 3 to 5 days in ND96 buffer. For each point, 10 oocytes were incubated with 100 μM ^14C-uric acid in ND96 buffer with and without test compounds at room temperature for 60 minutes. The oocytes were then washed three to four times in ice-cold ND96 buffer and lysed prior to scintillation counting.

In a further data set the test system is HepG2 cells. Kind of data set: Mitochondrial toxicity assay (JC-1 mitochondrial membrane potential). In kind it is cell-based, human. How it is done:
HepG2 cells were counted via hemocytometer and diluted into equal volumes of serum-free Opti-MEM (Life Technologies) and JC-1 Staining Solution (Sigma catalog number CS0390) at 300,000 cells/mL in the presence of 2.5 μg/mL JC-1. Cells were incubated at 37 °C and 5 % CO2 for 20 minutes, rinsed once with Hank's Balanced Salt Solution, and resuspended to the same concentration in serum-free Opti-MEM. Cells were then seeded into 96-well black-sided clear-bottom tissue culture plates at 30,000 cells/100 μL/well. Three replicates per experimental condition group were used. Compound was added with the final dimethyl sulfoxide (DMSO) concentration at 0.5 %. After 2 hours at 37 °C and 5 % CO2, medium was aspirated and plates were read on a Gemini EM spectrofluorometer (Molecular Devices). Fluorescence of JC-1 monomers was monitored by excitation at 490 nm and emission at 530 nm (green) and of aggregates by excitation at 525 nm and emission at 590 nm (red). The ratio of J-aggregates to monomers was calculated, with a lower ratio indicating increased cell toxicity. The percent change in mitochondrial membrane potential (Ψm) was calculated as follows: […]

Another data set concerns the target T2, PPARγ (Homo sapiens, UniProt P37231).
T2 sequence (P37231 238-505 limits assumed): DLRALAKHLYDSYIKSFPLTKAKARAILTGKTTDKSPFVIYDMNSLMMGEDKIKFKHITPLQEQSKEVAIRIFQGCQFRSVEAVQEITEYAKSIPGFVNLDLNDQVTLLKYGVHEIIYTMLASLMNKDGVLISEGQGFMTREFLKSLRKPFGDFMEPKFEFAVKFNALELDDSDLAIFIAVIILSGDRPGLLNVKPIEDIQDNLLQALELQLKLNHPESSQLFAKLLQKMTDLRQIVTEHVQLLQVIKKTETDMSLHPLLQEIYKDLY
Kind of data set: Human PPARγ luciferase reporter assay. To be noted: reporter cells, 24 hours. Format: cell-based. As to the method:
This assay was performed using nonhuman mammalian cells engineered to provide a PPARγ-responsive luciferase reporter gene and constitutive, high levels of PPARγ (Indigo Biosciences catalog number IB00101). Cells were incubated with compounds for 24 hours, and then luciferase activity was measured using a luminometer. Agonist activity was reported as fold activation over a vehicle control. A positive control agonist, rosiglitazone, was included in each batch run to verify cell integrity.

The conditions of data set [1]: cited from earlier work.
In a further data set the target is T3, OAT4 (Homo sapiens, UniProt Q9NSA0).
T3 sequence (Q9NSA0 with tags, fused parts or gaps): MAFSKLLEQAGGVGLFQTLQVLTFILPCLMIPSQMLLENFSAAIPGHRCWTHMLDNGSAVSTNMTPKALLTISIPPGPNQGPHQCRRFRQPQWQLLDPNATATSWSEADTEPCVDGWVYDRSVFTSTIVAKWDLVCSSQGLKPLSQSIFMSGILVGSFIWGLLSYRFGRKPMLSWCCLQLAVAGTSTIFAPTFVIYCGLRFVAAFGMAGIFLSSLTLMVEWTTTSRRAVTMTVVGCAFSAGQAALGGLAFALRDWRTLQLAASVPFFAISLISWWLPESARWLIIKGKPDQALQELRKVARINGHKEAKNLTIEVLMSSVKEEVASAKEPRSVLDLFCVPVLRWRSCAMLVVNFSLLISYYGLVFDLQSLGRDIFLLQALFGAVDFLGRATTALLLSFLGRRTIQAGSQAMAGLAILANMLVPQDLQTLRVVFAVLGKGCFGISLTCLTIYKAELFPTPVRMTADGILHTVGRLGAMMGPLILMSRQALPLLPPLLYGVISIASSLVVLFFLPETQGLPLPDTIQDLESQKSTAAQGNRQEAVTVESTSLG
Kind of data set: OAT4 urate transport assay in stably transfected HEK293 cells. Format: cell-based. To be noted: 100 μM 14C-urate, 10 min, OAT4-551G cells; mean ± SEM, three experiments; read-out: Potency (IC50) against OAT4.

Description for OAT4: Stably transfected HEK293-OAT4-551G cells were used for OAT4 transport activity assays, which were grown for several weeks in media (DMEM with 10 % fetal bovine serum and 1 mM sodium pyruvate) containing 500 μg/mL geneticin sulfate. An isolated clone with high OAT4 activity was selected for activity assays. One day prior to the assay, cells were plated at 200,000 cells/well into each well of white, clear bottom poly-D-lysine-coated assay plates (BD Biosciences).
The cells were assayed on the following day. […] The free urate was removed by aspiration and the cells rinsed three times in 150 μL wash buffer. The cells were then subjected to liquid scintillation counting to measure transported urate. […] Each point represents the mean and standard error of the mean (SEM) from triplicates.

`CCc1oc2ccccc2c1C(=O)c1cc(Br)c(O)c(Br)c1` [Benzbromarone]: the IC50 at GLUT9 (SLC2A9v2/GLUT9ΔN) (100 μM 14C-uric acid, 60 min, read-out: Potency against GLUT9) is ~100 µM. In addition, the “Effect on GLUT9 urate transport” value at GLUT9 (SLC2A9v2/GLUT9ΔN) (compound at up to 100 μM) is “only weak activity; also recorded: inhibited”. Also, the “Lowest concentration reducing mitochondrial membrane potential” value in the data set on HepG2 cells (HepG2, 2 hours) came out at 0.4 µM. For the same compound, the EC50 in the data set on HepG2 cells (Homo sapiens, HepG2, 2 hours, read-out: Half maximal effective concentration for reduction of mitochondrial membrane potential) came to 1.36 µM. Besides, at PPARγ (at 30 μM), the PPARγ activation entry is “strongly activated”. In addition, in data set [1], the Estimated plasma concentration was 0.016 to 0.16 µM and the Urinary excretion was 6%. Also, the IC50 at OAT4 stood at 3.19 ± 1.04 µM.
Turning to `CCCN(CCC)S(=O)(=O)c1ccc(C(=O)O)cc1` [Probenecid], in the data set with HepG2 cells (HepG2, up to 300 μM), the Mitochondrial toxicity result is recorded as “no mitochondrial toxicity”. For the same compound, the PPARγ activation result is given as “slight PPARγ activation” on PPARγ (at 300 μM) and “no activation” on PPARγ (up to 100 μM).
